# In ChEMBL document CHEMBL1201862, “PubChem BioAssay data set” (2004):
# Calls of active or inactive are those of the source. For most assays here, no stated cut-off is given here; in the data, actives have a measured EC50 and inactives only a lower limit.
# Assays:
# [1] = Luminescence Cell-Based Dose Confirmation HTS to Identify Activators of 5'UTR Stem-Loop Driven Alpha-Synuclein mRNA Translation in H4 Neuroglioblastoma Cells. [Related pubchem assays: 1829 (Project Summary), 1814 (Primary HTS)]; type: functional
# [2] = Luminescence Cell-Based Dose Response HTS to Identify Activators of Luciferase Translation or Activity in H4 […] Cells. [Related pubchem assays: 1829 (Project Summary), 1814 (Primary HTS)]; type: functional
# [3] = test system: H4; assay: Luminescence Cell-Based Dose Response HTS to Identify Activators of 5'UTR Stem-Loop Driven Prion Protein mRNA Translation in H4 Neuroglioblastoma Cells. [Related pubchem assays: 1829 (Project Summary), 1814 (Primary HTS)]; type: functional; details: Homo sapiens
# [4] = test system: Streptococcus sp. 'group A'; assay: Streptococcus pyogenes SK(-)GAS viability under kanamycin – luminescence, BacTiterGlo, confirmation, counter-screen for streptokinase expression inhibitor project, dose response (AID 1900); type: functional, organism-based
# [5] = target: T1, Streptokinase A (Streptococcus pyogenes serotype M1, UniProt P10520); assay: viability-normalized secreted streptokinase activity reduction – plasminogen activation absorbance, OD405, dose response (AID 1914); type: functional, Streptococcus pyogenes M1 GAS;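 further: secreted streptokinase activity via plasminogen activation per viability signal from cell pellet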
# T1 sequence (P10520 whole entry): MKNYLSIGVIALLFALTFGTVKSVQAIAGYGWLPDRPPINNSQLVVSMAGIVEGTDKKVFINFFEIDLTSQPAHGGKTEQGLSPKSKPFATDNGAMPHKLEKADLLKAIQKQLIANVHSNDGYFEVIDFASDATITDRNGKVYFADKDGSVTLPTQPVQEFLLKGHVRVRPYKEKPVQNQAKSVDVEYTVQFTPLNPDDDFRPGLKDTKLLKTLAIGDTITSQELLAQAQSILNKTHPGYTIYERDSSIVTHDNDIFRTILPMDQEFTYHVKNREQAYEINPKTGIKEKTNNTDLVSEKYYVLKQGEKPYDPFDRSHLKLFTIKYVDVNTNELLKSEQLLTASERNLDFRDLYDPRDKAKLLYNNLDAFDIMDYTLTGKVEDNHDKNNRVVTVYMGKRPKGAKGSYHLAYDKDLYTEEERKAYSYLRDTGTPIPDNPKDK
# [6] = test system: Streptococcus; assay: GAS UMAA2166 growth inhibition – luminescence, BacTiterGlo, counter-screen for streptokinase expression inhibitor project, dose response (AID 1915); type: functional, organism-based;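 further: potency for reduction of bacterial viability or growth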
# [7] = target: Paired box protein Pax-8 (Homo sapiens, UniProt Q06710); assay: PAX8 transcriptional activity inhibition in RMG-I – RMG-I cells, luciferase, cherry-pick, dose response (AID 687027); type: functional, cell-based;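 further: luciferase reporter driven by Pax8 target thyroperoxidase promoter measured by SteadyGlo luminescence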
# [8] = luciferase reporter signal suppression in cells – H4 neuroglioma cells, luminescence, dose response (AID 1990); type: functional, cell-based
# [9] = Luminescence Cell-Based Dose Response HTS to Identify Inhibitors of 5'UTR Stem-Loop Driven Prion Protein mRNA Translation in H4 Neuroglioblastoma Cells. [Related pubchem assays: 1827 (Project Summary), 1813 (Primary HTS)]; type: functional
# [10] = alpha-synuclein stem-loop luciferase translation blockers – H4 neuroglioma cells, luminescence, confirmation (AID 1988); type: functional, cell-based
# [11] = target: T2, Heat shock factor protein 1 (Mus musculus, UniProt P38532); assay: decrease of HSF1-responsive luciferase luminescence – cell-based, NIH3T3, dose retest, confirmation (AID 2382); type: functional;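 further: NIH3T3 fibroblasts with HSF1-driven luciferase reporter stressed by proteasome inhibitor MG132; luminescence from HSF1-driven luciferase expression after 8 hours of MG132 stress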
# T2 sequence (P38532 whole entry): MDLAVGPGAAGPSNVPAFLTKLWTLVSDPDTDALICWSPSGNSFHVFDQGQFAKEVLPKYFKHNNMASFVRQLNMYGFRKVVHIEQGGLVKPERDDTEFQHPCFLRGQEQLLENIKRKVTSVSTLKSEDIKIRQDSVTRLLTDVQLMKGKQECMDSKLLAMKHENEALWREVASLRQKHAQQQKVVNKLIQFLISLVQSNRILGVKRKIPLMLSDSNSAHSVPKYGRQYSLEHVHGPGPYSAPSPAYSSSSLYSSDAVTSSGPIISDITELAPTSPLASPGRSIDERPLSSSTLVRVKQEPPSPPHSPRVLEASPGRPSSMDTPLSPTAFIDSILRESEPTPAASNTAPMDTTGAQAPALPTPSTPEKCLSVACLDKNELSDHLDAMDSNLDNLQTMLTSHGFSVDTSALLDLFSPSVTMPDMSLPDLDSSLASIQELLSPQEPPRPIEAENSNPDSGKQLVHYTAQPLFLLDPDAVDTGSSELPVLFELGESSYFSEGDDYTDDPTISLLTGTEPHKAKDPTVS
# [12] = target: Cytochrome P450 2D6 (Homo sapiens, UniProt P10635);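 further: CYP2D6 member of a cytochrome P450 panel assay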
# [13] = NIH-3T3 fibroblast cytotoxicity, dose response, cytotoxicity control, cell-based, fluorescence, Alamar Blue, secondary assay (AID 2327); type: functional;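 further: NIH-3T3 mouse fibroblasts cultured with fluconazole at 8 µg/mL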
# [14] = fluconazole-exposed Candida albicans growth modulators – fluorescence, retest, confirmation (AID 2467); type: functional, cell-based
# [15] = target: T3, Protein skinhead-1 (Caenorhabditis elegans, UniProt P34707); type: functional
# T3 sequence (P34707 whole entry): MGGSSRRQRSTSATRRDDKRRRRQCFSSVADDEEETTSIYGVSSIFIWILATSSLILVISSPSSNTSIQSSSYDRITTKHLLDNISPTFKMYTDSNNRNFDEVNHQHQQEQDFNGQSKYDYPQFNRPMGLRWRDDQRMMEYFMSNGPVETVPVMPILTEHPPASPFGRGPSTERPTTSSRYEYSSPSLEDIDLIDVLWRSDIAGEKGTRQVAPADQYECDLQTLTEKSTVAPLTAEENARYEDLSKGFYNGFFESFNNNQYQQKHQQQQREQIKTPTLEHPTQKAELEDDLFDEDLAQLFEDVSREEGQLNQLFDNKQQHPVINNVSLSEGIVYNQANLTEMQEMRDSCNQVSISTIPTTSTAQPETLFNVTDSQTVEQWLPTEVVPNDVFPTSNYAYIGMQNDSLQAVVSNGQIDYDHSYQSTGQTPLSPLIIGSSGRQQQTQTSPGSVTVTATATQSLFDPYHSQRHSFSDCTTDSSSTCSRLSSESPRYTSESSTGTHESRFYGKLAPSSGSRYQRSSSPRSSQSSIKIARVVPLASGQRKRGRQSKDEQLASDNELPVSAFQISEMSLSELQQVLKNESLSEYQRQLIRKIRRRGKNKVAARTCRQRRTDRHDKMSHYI
# [16] = target: T4, Cytochrome P450 1A2 (Homo sapiens, UniProt P05177);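 further: PubChem cytochrome P450 panel assay, CYP1A2 panel member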
# T4 sequence (P05177 whole entry): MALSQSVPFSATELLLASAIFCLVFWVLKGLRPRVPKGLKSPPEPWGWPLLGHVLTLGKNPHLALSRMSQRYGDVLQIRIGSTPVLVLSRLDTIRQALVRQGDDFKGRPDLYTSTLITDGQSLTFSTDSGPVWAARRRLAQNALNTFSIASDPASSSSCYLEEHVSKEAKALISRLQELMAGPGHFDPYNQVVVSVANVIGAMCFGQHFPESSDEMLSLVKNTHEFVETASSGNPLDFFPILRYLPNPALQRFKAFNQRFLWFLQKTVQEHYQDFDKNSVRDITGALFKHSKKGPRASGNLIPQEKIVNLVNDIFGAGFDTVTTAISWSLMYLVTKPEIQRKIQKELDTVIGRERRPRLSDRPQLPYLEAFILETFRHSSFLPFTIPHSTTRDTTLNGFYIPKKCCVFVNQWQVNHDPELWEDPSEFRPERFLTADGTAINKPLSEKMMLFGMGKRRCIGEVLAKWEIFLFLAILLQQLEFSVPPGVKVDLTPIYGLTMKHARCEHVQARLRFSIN
# [17] = target: Cytochrome P450 2C9 (Homo sapiens, UniProt P11712)
# [18] = viability of uninfected HEp-2 cells – cell-based, HTS, cytotoxicity control for RSV inhibitor project, dose response (AID 2410); type: functional; details: human respiratory syncytial virus
# Cytochrome P450 2D6, sequence (P10635 whole entry): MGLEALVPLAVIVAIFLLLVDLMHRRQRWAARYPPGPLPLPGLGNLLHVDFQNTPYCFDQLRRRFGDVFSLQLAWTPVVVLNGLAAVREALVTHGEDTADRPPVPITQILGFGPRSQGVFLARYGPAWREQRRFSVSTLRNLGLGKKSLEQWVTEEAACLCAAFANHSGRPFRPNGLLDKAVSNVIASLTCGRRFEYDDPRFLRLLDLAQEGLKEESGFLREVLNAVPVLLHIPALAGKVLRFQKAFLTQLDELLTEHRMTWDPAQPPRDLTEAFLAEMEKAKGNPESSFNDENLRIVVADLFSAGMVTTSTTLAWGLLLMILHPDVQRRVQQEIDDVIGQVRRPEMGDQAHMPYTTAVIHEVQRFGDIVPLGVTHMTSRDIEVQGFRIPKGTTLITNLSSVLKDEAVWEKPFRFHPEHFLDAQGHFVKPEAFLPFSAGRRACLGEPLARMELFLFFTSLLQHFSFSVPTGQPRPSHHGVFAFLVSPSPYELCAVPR
# Paired box protein Pax-8, sequence (Q06710 whole entry): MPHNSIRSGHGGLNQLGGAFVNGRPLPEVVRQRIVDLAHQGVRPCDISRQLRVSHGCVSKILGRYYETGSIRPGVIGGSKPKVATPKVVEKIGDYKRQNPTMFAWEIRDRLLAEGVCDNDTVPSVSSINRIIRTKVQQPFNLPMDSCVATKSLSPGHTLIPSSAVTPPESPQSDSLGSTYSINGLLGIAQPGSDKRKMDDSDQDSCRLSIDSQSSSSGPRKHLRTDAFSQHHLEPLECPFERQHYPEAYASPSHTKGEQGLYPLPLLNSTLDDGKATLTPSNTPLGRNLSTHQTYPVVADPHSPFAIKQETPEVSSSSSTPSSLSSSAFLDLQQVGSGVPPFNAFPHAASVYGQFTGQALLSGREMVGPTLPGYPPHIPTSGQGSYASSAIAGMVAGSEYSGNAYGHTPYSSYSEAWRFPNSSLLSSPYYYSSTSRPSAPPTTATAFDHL
# Cytochrome P450 2C9, sequence (P11712 whole entry): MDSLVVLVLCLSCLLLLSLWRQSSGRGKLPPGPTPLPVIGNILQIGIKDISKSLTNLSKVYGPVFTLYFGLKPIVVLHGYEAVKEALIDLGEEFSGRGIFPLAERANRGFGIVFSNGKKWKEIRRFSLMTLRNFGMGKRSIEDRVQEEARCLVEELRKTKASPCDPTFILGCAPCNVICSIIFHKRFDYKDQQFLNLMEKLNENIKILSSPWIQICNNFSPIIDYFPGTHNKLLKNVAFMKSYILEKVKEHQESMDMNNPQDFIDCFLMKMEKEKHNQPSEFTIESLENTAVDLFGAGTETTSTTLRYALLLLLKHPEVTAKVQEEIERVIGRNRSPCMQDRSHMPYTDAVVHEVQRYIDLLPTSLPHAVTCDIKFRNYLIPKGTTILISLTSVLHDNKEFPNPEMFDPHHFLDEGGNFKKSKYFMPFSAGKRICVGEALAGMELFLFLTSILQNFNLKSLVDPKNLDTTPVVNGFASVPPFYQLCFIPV
smiles,measurement,setting,value
O=C(c1ccccc1)N1CCN2C(=O)c3ccccc3C12c1ccc(Cl)cc1 (stereo not drawn),EC50,[1],> 120 µM (not active)
same,EC50,[2],34.9 µM (active)
same,EC50,[3],15.4 µM (active)
CC(/C=C1\SC(=O)N(CC(=O)Nc2ccc(O)cc2)C1=O)=C\c1ccccc1,EC50,[4],13.8 µM (active)
same,EC50,[5],> 150 µM (not active)
same,EC50,[6],31.1 µM (active)
same,AC50,[7],64.3 µM (active)
Nc1n[nH]c(SCc2cccc(Br)c2)n1,EC50,[8],> 120 µM (not active)
same,EC50,[9],> 120 µM (not active)
same,EC50,[10],> 120 µM (not active)
COc1ccc(C(=O)Nc2ccc(-c3cn4ccsc4n3)cc2)cc1S(=O)(=O)N1CCOCC1,EC50,[8],> 120 µM (not active)
same,EC50,[9],> 120 µM (not active)
same,EC50,[10],60.6 µM (active)
OCCN(Cc1ccccc1)Cc1cccc(Cl)c1Cl,EC50,[11],> 195 µM (not active)
same,AC50,[12],1.58 µM (inconclusive)
Cc1[nH]c2ccccc2c1C(=O)/C=C/c1ccccc1Cl,EC50,[1],7.39 µM (active)
same,EC50,[3],10.1 µM (active)
COc1ccc(C(=O)C2CCCN(Cc3cccn3-c3ccccn3)C2)c(C)c1 (stereo not drawn),EC50,[13],> 160 µM (inactive)
same,EC50,[14],0.706 µM (active)
Clc1ccccc1CNc1nc2ccccc2n2cnnc12,EC50,[8],14.2 µM (active)
same,EC50,[9],> 120 µM (not active)
same,EC50,[10],35.8 µM (active)
COc1ccc(/C=C/C(=O)NC(=S)NNC(=O)Cc2cccs2)cc1,EC50,[4],2.45 µM (active)
same,EC50,[5],> 150 µM (not active)
same,EC50,[6],20.9 µM (active)
COc1ccc(/C=C/C(=O)NC(=S)N2CCN(c3ccccc3OC)CC2)cc1,EC50,[1],1.67 µM (active)
same,EC50,[2],> 120 µM (not active)
same,EC50,[4],> 150 µM (not active)
same,EC50,[3],7.91 µM (active)
same,EC50,[5],> 150 µM (not active)
same,EC50,[6],> 150 µM (not active)
N#Cc1cc2cc3c(cc2nc1SCC(=O)N1CCOCC1)OCCO3,EC50,[9],> 120 µM (not active)
same,EC50,[10],5.54 µM (active)
NNC(=O)c1ccc(OCC2CC(c3ccc(Cl)cc3)=NO2)cc1 (stereo not drawn),EC50,[4],> 150 µM (not active)
same,EC50,[5],> 150 µM (not active)
same,EC50,[6],> 150 µM (not active)
CC(C)OC(=O)c1cccnc1N1CCN(c2cccc(Cl)c2)CC1,EC50,[4],20.3 µM (active)
same,EC50,[5],19.3 µM (active)
same,EC50,[6],> 150 µM (not active)
C=CCSc1ncc(-c2ccccc2)cn1,EC50,[1],25.3 µM (active)
same,EC50,[2],16 µM (active)
same,EC50,[3],24.5 µM (active)
same,IC50,[15],11.4 µM (active)
CCOC(=O)c1cccnc1SCC(=O)NC(C)CC (stereo not drawn),EC50,[4],> 150 µM (not active)
same,EC50,[5],> 150 µM (not active)
same,EC50,[6],> 150 µM (not active)
Cn1ccnc1CN1CCCCC1C(=O)Nc1ccc(Oc2cccnc2)cc1 (stereo not drawn),EC50,[1],> 120 µM (not active)
same,EC50,[2],> 120 µM (not active)
same,EC50,[3],> 120 µM (not active)
O=C(COc1ccc(Cl)cc1)NC1CCSC1=O (stereo not drawn),EC50,[13],> 160 µM (inactive)
N=C(c1ccc2ccccc2c1)c1ccccc1Cc1ccccc1,AC50,[12],3.16 µM (inconclusive)
same,AC50,[16],0.501 µM (inconclusive)
same,AC50,[17],7.94 µM (inconclusive)
CCCCCCN(C(=O)CCCN1C(=O)NC(c2ccc(-c3ccccc3)cc2)C(C(=O)OCc2ccccc2)=C1C)C(C)C(=O)NCCCC (stereo not drawn),AC50,[7],12.2 µM (active)
N#Cc1ccc2nc(-c3ccc(CN4CCC(n5c(O)nc6ccccc65)CC4)cc3)c(-c3ccccc3)nc2c1,AC50,[7],8.95 µM (active)
Cc1ccc(S(=O)(=O)N(C)C[C@H]2Oc3ccc(NC(=O)Cc4ccccc4)cc3C(=O)N([C@H](C)CO)C[C@@H]2C)cc1,AC50,[7],29.8 µM (active)
C[C@@H]1CCCCO[C@@H](CN(C)Cc2ccc(Cl)c(Cl)c2)[C@H](C)CN([C@H](C)CO)C(=O)c2cc(NC(=O)Nc3ccc(C(F)(F)F)cc3)ccc2O1,AC50,[7],2.39 µM (active)
C[C@@H]1CCCCO[C@H](CN(C)Cc2ccccc2)[C@H](C)CN([C@H](C)CO)C(=O)c2cc(NC(=O)Nc3ccc(C(F)(F)F)cc3)ccc2O1,AC50,[7],5.05 µM (active)
Cc1ccc(S(=O)(=O)N/N=C2/CC(c3ccccc3)Oc3ccccc32)cc1[N+](=O)[O-] (stereo not drawn),EC50,[1],15.9 µM (active)
same,EC50,[2],> 120 µM (not active)
same,EC50,[3],13.8 µM (active)
CCOC(=O)c1cc2c(=O)n3ccccc3nc2n(CCOC)/c1=N\C(=O)c1ccncc1,EC50,[13],115 µM (active)
COCCC/N=C(\c1ccco1)n1c(=S)nc(-c2ccco2)n(CCCOC)c1=S,EC50,[1],11.9 µM (active)
same,EC50,[2],11.6 µM (active)
same,EC50,[3],> 120 µM (not active)
Cc1nn(-c2ccccc2)c(Cl)c1/C=N\NC(=O)c1cnccn1,EC50,[1],23.6 µM (active)
same,EC50,[2],14 µM (active)
same,EC50,[3],15.3 µM (active)
C/C(=N\NC(=O)c1cc2ccccc2cc1O)c1ccc2c(c1)OCO2,EC50,[4],3.73 µM (active)
same,EC50,[5],6.65 µM (active)
same,EC50,[6],21.9 µM (active)
"N=C(N)NC(=O)c1nc(Cl)c(N2CCCCCC2)nc1N [N,N-HEXAMETHYLENEAMILORIDE]",CC50,[18],10.5 µM (active)
same,AC50,[12],39.8 µM (inconclusive)
